The molecule `Clc1cccc(/C=C/C2=CCN(Cc3c[nH]c4ncccc34)CC2)c1` came in with a melting point of 208 to 210 °C. The result for `Nc1c(Cl)cc(C(O)CNCCCCCCOCCCc2cncc(CC(=O)O)c2)cc1Cl` (stereo not given) reads 191 to 192 °C; that for `COc1nc(NN)c2c(OC)c(OC)cc(Cl)c2n1`, 166 to 168 °C; that for `O=C1COc2ccc(CCCCCc3ccc4c(c3)NC(=O)CO4)cc2N1`, 189 to 190 °C. In the case of `CCCCCC1CCC(c2ccc(-c3cc(F)c(N)cc3F)cc2)CC1` (stereo not given) it was 68.3 to 70.4 °C; in that of `COc1ccccc1C1CC(=O)Oc2ccc(C)cc21` (stereo not given), 140 °C; in that of `COc1ccc(-c2ccc(NC(=O)OC(C)(C)C)c([N+](=O)[O-])c2)cc1`, 107 to 109 °C. In the case of `CC(=O)N=c1[nH]c2ccccc2n1CCCN1CCN(C(c2ccccc2)c2ccccc2)CC1` it was 143 °C. As to `CCCCCCCCNC(=O)CC(=O)c1c2ccccc2cc2ccccc12`, the melting point was in the range of 70 to 72 °C. The result for `C[C@]1(COc2ccc(N3CCN(Cc4ccc(N5CCC(Oc6ccc(OC(F)(F)F)cc6)CC5)cc4)CC3)cc2)Cn2cc([N+](=O)[O-])nc2O1` reads 198 to 201 °C; that for `CCCCC1(CCCC)C(=O)N(C(C)(C)C)CC(C)(C)N1OC(C)(C)C#N`, 68 to 74 °C. In the case of `CC(=O)c1cccc2c1Cc1ccccc1-2` it was 84 to 87 °C; in that of `OC(C#Cc1ccncc1)c1ccccc1` (stereo not given), 93 to 96 °C.

In turn, `Nc1nc(Cl)nc2c1ncn2COCCO` returned a melting point of 188 to 190 °C. In the case of `CC(=O)OCc1ccccc1S(N)(=O)=O` it was 131 to 133 °C; in that of `CC(C)OC(=O)Nc1ccc2nc(-c3ccccc3)oc2n1`, 210 to 211 °C; in that of `CNC(=O)N(c1ccncc1)n1cccc1`, 156 to 160 °C. In the case of `COc1ccc(NC(=O)c2ccc(Cl)c(Cl)c2)cc1Nc1cccc(C(F)(F)F)c1` it was 151 to 152 °C; in that of `CCN(CC)C(=O)c1cc2ccccc2c(-c2ccc(C)cc2)n1`, 113 °C. Regarding `C=CCc1c(-c2cc(=O)c3c(O)cc(OCc4ccccc4)cc3o2)ccc(OC)c1O`, the melting point stood at 234 °C.

For `CC(C(=O)NC(C)(C)C)c1cc(Cl)ccc1C(=O)O` (stereo not given), the melting point was 175 to 178 °C.

Consider `O=C1CCN(C(=O)OCc2ccc([N+](=O)[O-])cc2)CC1`, for which the melting point was 123 to 124 °C.

For the molecule `C[C@H](c1ccccc1)N1C(=O)N(Cc2ccccc2)[C@@H]2C(=O)OC[C@@H]21`, the melting point lay in the range of 163 to 164 °C. For the molecule `O=C(Nc1cccc2[nH]ccc12)c1ccccc1OCCCCl`, the melting point is 140 °C.

The molecule `CCCc1c(O)c(O)c(C(=O)O)c2cc(C)c(C)cc12` registered a melting point of 170 to 172 °C. Molecule `CCCc1nc2c(c(C)c(C)n3nnnc23)n1CC(C)(C)NC(C)=O` returned a melting point of 237 to 240 °C. The result for `CCOC(=O)CNc1nc(Cl)nc(Cl)n1` reads 82 to 87 °C; that for `CCCC(CCC)n1nnc2c(Cl)nc(C)nc21`, 92 to 93 °C. In the case of `C[C@@H]1C(=O)C[C@H]2C[C@@H]1OO[C@@]2(C)/C=C\c1ccccc1` it was 60 °C; in that of `CN(C)C(=O)c1cnn(-c2ccc(Br)cc2)c1C#N`, 131 to 133 °C. In the case of `COc1cccc2c1C13CCN(C)C(C2)C1CCC(=O)C3` (single isomer, unassigned; (-)) it was 145 to 147 °C. With `O=C(Nc1ccc(C(F)(F)F)cc1)C(=O)N1CCC(Cc2ccc(F)cc2)CC1`, the melting point fell in the range of 109 to 111 °C. In the case of `Nc1nnc(Sc2ccccc2)s1` it was 202 to 203 °C; in that of `COc1cc([N+](=O)[O-])ccc1-c1cccc(C(=O)OC(C)(C)C)c1`, 88 to 88.5 °C. The result for `COc1cc(O)c2c(=O)c(OC)c(-c3ccc(N)cc3)oc2c1` reads 221 °C; that for `CCCCSc1ccc(C2CC(=O)C(C(=O)CC)=C(O)C2)cc1[N+](=O)[O-]` (stereo not given), 102 °C.

In turn, `COc1ccc(-c2cnc3c(-c4ccccc4)nc(-c4cccc(OC)c4)nc3c2)cc1` returned a melting point of 131 to 132 °C. Regarding `CC1(Cn2c(=O)n(-c3ccccc3)c3ccccc32)Cn2cc([N+](=O)[O-])nc2O1` (stereo not given), the melting point was 234 to 235 °C. Turning to `O=C1OC(=Cc2ccccc2C(F)(F)F)C(O)=C1c1ccc(-c2ccccc2)cc1`, the melting point lay within 228 to 230 °C. On to `O=c1oc(-c2ccc(F)cc2)nc2cccc(F)c12`, for which the melting point was 189 to 193 °C.

In turn, `CCc1oc2ccc([N+](=O)[O-])cc2c1C(=O)c1ccc(OC)cc1` registered a melting point of 130 °C.

In the case of `CN(C)Cc1ccnc(CSCCNc2ncc(Cc3ccn(C)c(=O)c3)c(=O)[nH]2)c1`, the melting point lay within 137 to 139 °C.

The molecule `O=C1Cn2nc(-c3ccc(F)cc3)c(-c3ccncc3)c2N1` returned a melting point above 250 °C.

For `OCCCCCCOc1ccc2ccccc2c1`, the melting point fell in the range of 53 to 56 °C. Take `O=c1c2ccccc2nnn1CCCN1CC=C(c2c[nH]c3ccccc23)CC1`: the melting point came to 189 °C. In the case of `O=C(O)c1cc(O)c(-c2ccccc2)c([N+](=O)[O-])c1` it was 213 to 215 °C.

`CNc1nc(-c2cccc(NC(=O)c3ccc(OC)c(OC4CCCC4)c3)c2)c2cc(OC)c(OC)cc2n1` gave a melting point of 129 to 131 °C.

Regarding `CCOC(=O)c1sc(Cc2ccccc2)nc1O`, the melting point lay within 97 to 98 °C.

`CC1=C(C(=S)Cc2ccccc2)C(c2ccccc2)C2=C(N1)c1ccccc1C2=O` (stereo not given) returned a melting point of 226 to 228 °C. The result for `COc1ccc(N2CCN(C(=O)c3ccccc3C(c3ccc(O)cc3)c3ccc(O)cc3)CC2)cc1` reads 208 to 210 °C; that for `CCCC(=O)c1cnc2c(OC)cccc2c1Cl`, 114 to 116 °C; that for `O=C(O)C=Cc1ccc(CCNS(=O)(=O)c2ccc(Cl)cc2)cc1`, 85 to 86 °C. The result for `CCc1cnc(-n2cc(CCCO)c(C(C)C)n2)nc1` reads 70 to 71 °C.

The molecule `COc1ccc(-c2c(CO)c(CO)c3n2-c2ccc(OC)cc2C3)cc1` came in with a melting point of 186 to 187 °C. Consider `O=Cc1ccc(-c2ccc3ncnc(Nc4ccc(OCc5cccc(F)c5)c(Cl)c4)c3c2)s1`, for which the melting point was found to be 252 °C. In the case of `O=C1N[C@H](Cc2cccc(OC(F)(F)C(F)F)c2)[C@H](c2ccnc(F)c2)O1` (racemic) it was 118 to 119 °C; in that of `Clc1ccc(C23CCN(CC2)C3)cn1`, 70 to 72 °C; in that of `C=CCN(c1ccc(Cl)cc1[N+](=O)[O-])S(=O)(=O)c1ccc(C)cc1`, 77 to 78 °C. In the case of `Cc1oc2c(NC(=O)c3c(Cl)cccc3Cl)cc(C(N)=O)cc2c1C` it was above 250 °C; in that of `c1ccc(OCCSCc2nnc(-c3ccc4[nH]ccc4c3)o2)cc1`, 130 to 132 °C; in that of `CCOCc1cc(OC)c(-c2ccc(C[C@H](NC(=O)c3c(F)cccc3F)C(=O)OCC)cc2)c(OC)c1`, 87 to 89 °C. In the case of `CC(=O)OCC1OC(n2cc(F)c(=O)[nH]c2=O)CC1OCc1ccccc1` (stereo not given) it was 87 to 88 °C; in that of `CNc1nc(-c2cccc(Oc3ccccc3)c2)c2cc(OC)c(OC)cc2n1`, 157 to 159 °C. The molecule `COc1ccc2c(c1OC(C)=O)N=CC1CCCN1C2=O` (stereo not given) came in with a melting point of 144 to 146 °C. `CCCn1c(-c2ccccc2)nc2cc(CO)ccc21` came in with a melting point of 113 °C. Take `Fc1ccc2nc(-c3ccc(Cl)cc3)cc(Cl)c2c1`: the melting point fell in the range of 169 to 172 °C. In the case of `Nc1nc(Cl)cc(OCC2(CO)CCC2)n1` it was 125 to 127 °C; in that of `CC(C)(C)c1cc(-c2cc(-c3ccc(C(=O)O)cc3)ccc2OCCO)ccc1N1CCCC1`, 223 °C. The result for `COc1ccc(CC(O)c2cc(OC)cc(OC)c2)cc1` (stereo not given) reads 101 to 102 °C; that for `O=C(Nc1ccccc1)Nc1ccc2ccc(Cl)nc2n1`, 276 °C; that for `CCCOc1ccc(OC)cc1-c1ncc(C(=O)OCC)c(=O)[nH]1`, 124 to 126 °C. In the case of `O=C(Nc1c([N+](=O)[O-])cnn1-c1c(Cl)cc(C(F)(F)F)c(Cl)c1Cl)C(F)F` it was 146 to 151 °C; in that of `COc1ccc(-c2ccc3c(-c4ccccc4)c(OC)ccc3c2)cc1`, 157 to 160 °C; in that of `CC(=O)C=Cc1ccc(Cl)cc1Cl`, 79 to 80 °C. In turn, `O=C(Nc1nccs1)c1nc(-c2ccc(C(F)(F)F)cc2)[nH]c1-c1ccc(F)cc1` yielded a melting point above 250 °C.

Consider `CC(C)C(=O)CCC(C)C1CCC2(C#N)C3=CCC4CC(OC(=O)c5ccccc5)CCC4(C)C3CCC12C` (stereo not given), for which the melting point fell in the range of 168 to 169 °C. The result for `Nc1ncc(-c2ccccc2-c2ncccn2)c(N)n1` reads 95.1 °C; that for `CC(C)n1cc(C(=O)Nc2nccs2)c2ccc(O)cc21`, 239 to 241 °C; that for `COc1ccc(C(=O)c2cc3ccccc3o2)cc1`, 93 to 94 °C. The result for `Fc1ccc(C(=Cc2ccccc2)C(F)(F)F)cc1` reads 43 to 45 °C; that for `CCCCC(C(=O)N1CCCCC1)c1ccc(C(=O)O)cc1` (stereo not given), 142 °C. The result for `CC(CCC(=O)O)c1ccc(OCc2ccccc2C(=O)O)cc1` (stereo not given) reads 104 to 106 °C; that for `COc1cccc2c1CC1(CCCCC1)C2=O`, 94 to 96 °C; that for `OCc1ccc(-c2cccc(-c3cn([C@H]4CN5CCC4CC5)nn3)c2)cc1`, 214 °C. `CCOCc1nc2c(N)nc3ccccc3c2n1CC1(C(N)=O)CCCCC1`: the melting point is 221 to 223 °C. In the case of `Cc1ccc(-c2ccc3cc(C(=O)Nc4ccc(CN(C)C5CCOCC5)cc4)n(C)c3c2)cc1`, the melting point was in the range of 225 to 226 °C. In the case of `COc1ccc(C=O)c(Br)c1Oc1ccc([N+](=O)[O-])cc1` it was 115 to 117 °C. In the case of `COc1c(C)cc(N=C=S)cc1C(=S)N(C)C` it was 74 to 75 °C.

In turn, `CC(=O)NCCOc1ccc(N)cc1O` displayed a melting point of 134 °C. In the case of `COC(=O)CCc1oc(C)nc1-c1ccc(Cl)cc1` it was 74 to 75 °C.

One may read the melting point as the temperature, or range, at which the solid turns liquid.

Source of the values: a melting point compilation (Tetko et al.; mined from patent text by program, amines drawn as free bases though some values may be those of a salt).
